Results from US20070128217A1 (priority 2003, published 2007).

Experiments:
[1] = tested on: rabbit serum obtained by immunizing a rabbit with the SARS-CoV strain Frankfurt 1; type: binding; set-up: Binding of a rabbit serum to linear peptides / Binding of a rabbit serum to looped peptides / Rabbit serum linear peptides / Rabbit serum looped peptides / Binding of a rabbit serum to linear peptides of protein N of SARS-CoV Urbani (Rabbit serum linear peptides) / Binding of a rabbit serum to looped/cyclic peptides of protein N of SARS-CoV Urbani (Rabbit serum looped peptides): unit not given here
[2] = tested on: antibodies in sera from SARS patients (sera 1a, 1b, 2, 6, 37, 62, London, SARS-yellow, SARS-green); type: binding, human; set-up: Binding of serum 6 to linear peptides of protein X1 of SARS-CoV Urbani / Binding of serum 37 to linear peptides of protein X1 of SARS-CoV Urbani / Binding of serum 6 to looped/cyclic peptide (PEPSCAN-ELISA) / Binding of serum 37 to looped/cyclic peptide (PEPSCAN-ELISA) / Binding of serum 37 to looped/cyclic peptides of protein X1 of SARS-CoV Urbani / Binding of serum 6 to linear peptides of protein X2 / Binding of serum 37 to linear peptides of protein X2 / Binding of serum 37 to looped/cyclic peptides of protein X2 of SARS-CoV Urbani / Binding of serum 6 to linear peptides of protein M of SARS-CoV Urbani / Binding of serum 37 to linear peptides of protein M of SARS-CoV Urbani / Binding of serum 6 to looped/cyclic peptides of protein M of SARS-CoV Urbani / Binding of serum 37 to looped/cyclic peptides of protein M of SARS-CoV Urbani / Binding of serum 6 to linear peptides of protein X3 of SARS-CoV Urbani / Binding of serum 37 to linear peptides of protein X3 of SARS-CoV Urbani / Binding of serum 37 to looped/cyclic peptides of protein X3 of SARS-CoV Urbani / Binding of serum 6 to linear peptides of protein X4 of SARS-CoV Urbani / Binding of serum 37 to linear peptides of protein X4 of SARS-CoV Urbani / Binding of serum 37 to looped/cyclic peptides of protein X4 of SARS-CoV Urbani / Binding of serum 6 to linear peptides of protein X5 of SARS-CoV Urbani / Binding of serum 37 to linear peptides of protein X5 of SARS-CoV Urbani / Binding of serum 37 to looped/cyclic peptides of protein X5 of SARS-CoV Urbani / Binding of serum 6 to linear peptides of protein N of SARS-CoV Urbani / Binding of serum 37 to linear peptides of protein N of SARS-CoV Urbani / Binding of serum 6 to linear peptide (PEPSCAN-ELISA) / Binding of serum 1a to looped/cyclic peptides of protein N of SARS-CoV Urbani / Binding of serum 1b to looped/cyclic peptides of protein N of SARS-CoV Urbani / Binding of serum 2 to looped/cyclic peptides of protein N of SARS-CoV Urbani / Binding of serum 6 to looped/cyclic peptides of protein N of SARS-CoV Urbani / Binding of serum 37 to looped/cyclic peptides of protein N of SARS-CoV Urbani / Binding of serum 62 to looped/cyclic peptides of protein N of SARS-CoV Urbani / Binding of serum London to looped/cyclic peptides of protein N of SARS-CoV Urbani / Binding of serum SARS-green to looped/cyclic peptides of protein N of SARS-CoV Urbani: unit not given here
[3] = tested on: control sera (pooled serum of ten healthy LUMC hospital workers; commercial negative donor pooled serum from the Dutch bloodbank); type: binding, human; set-up: Binding of Control serum LUMC to linear peptides / Binding of Control serum Blood-bank to linear peptides / Binding of Control serum LUMC to looped peptides / Binding of Control Serum Blood-Bank to Looped peptides / Binding of Control serum LUMC to linear peptides of the protein M of SARS-CoV Urbani / Binding of Control serum Blood-bank to linear peptides of the protein M of SARS-CoV Urbani / Binding of Control serum LUMC to looped peptides of the protein M of SARS-CoV Urbani / Binding of Control Serum Blood-Bank to Looped peptides of the protein M of SARS-CoV Urbani: unit not given here

## QTAAFRDVLVVLNKR
[1]
  Rabbit serum linear peptides: 0.4
  Rabbit serum looped peptides: 0.5
[2]
  Binding of serum 1a to linear peptides of protein X5 of SARS-CoV Urbani: 0.5
  Binding of serum 1a to looped/cyclic peptides of protein X5 of SARS-CoV Urbani: 0.6
  Binding of serum 1b to linear peptides of protein X5 of SARS-CoV Urbani: 0.5
  Binding of serum 1b to looped/cyclic peptides of protein X5 of SARS-CoV Urbani: 0.5
  Binding of serum 2 to linear peptides of protein X5 of SARS-CoV Urbani: 0.6
  Binding of serum 2 to looped/cyclic peptides of protein X5 of SARS-CoV Urbani: 0.6
  Binding of serum 6 to linear peptides of protein X5 of SARS-CoV Urbani: 0.6
  Binding of serum 6 to looped/cyclic peptides of protein X5 of SARS-CoV Urbani: 0.8
  Binding of serum 37 to linear peptides of protein X5 of SARS-CoV Urbani: 0.5
  Binding of serum 37 to looped/cyclic peptides of protein X5 of SARS-CoV Urbani: 0.6
  Binding of serum 62 to linear peptides of protein X5 of SARS-CoV Urbani: 0.4
  Binding of serum 62 to looped/cyclic peptides of protein X5 of SARS-CoV Urbani: 0.6
  Binding of serum London to linear peptides of protein X5 of SARS-CoV Urbani: 0.5
  Binding of serum London to looped/cyclic peptides of protein X5 of SARS-CoV Urbani: 0.5
  Binding of serum SARS-green to linear peptides of protein X5 of SARS-CoV Urbani: 0.2
  Binding of serum SARS-green to looped/cyclic peptides of protein X5 of SARS-CoV Urbani: 0.3
  Binding of serum SARS-yellow to linear peptides of protein X5 of SARS-CoV Urbani: 0.6
  Binding of serum SARS-yellow to looped/cyclic peptides of protein X5 of SARS-CoV Urbani: 0.4
[3]
  Binding of Control Serum Blood-Bank to Looped peptides: 0.7
  Binding of Control serum Blood-bank to linear peptides: 0.6
  Binding of Control serum LUMC to linear peptides: 0.8
  Binding of Control serum LUMC to looped peptides: 0.5

## QTCTPNVTINCQDPA
[1]
  Rabbit serum linear peptides: 0.3
  Rabbit serum looped peptides: 0.0
[2]
  Binding of serum 1a to linear peptides of protein X5 of SARS-CoV Urbani: 0.8
  Binding of serum 1a to looped/cyclic peptides of protein X5 of SARS-CoV Urbani: 0.4
  Binding of serum 1b to linear peptides of protein X5 of SARS-CoV Urbani: 0.7
  Binding of serum 1b to looped/cyclic peptides of protein X5 of SARS-CoV Urbani: 0.1
  Binding of serum 2 to linear peptides of protein X5 of SARS-CoV Urbani: 0.6
  Binding of serum 2 to looped/cyclic peptides of protein X5 of SARS-CoV Urbani: 0.3
  Binding of serum 6 to linear peptides of protein X5 of SARS-CoV Urbani: 0.8
  Binding of serum 6 to looped/cyclic peptides of protein X5 of SARS-CoV Urbani: 0.2
  Binding of serum 37 to linear peptides of protein X5 of SARS-CoV Urbani: 0.8
  Binding of serum 37 to looped/cyclic peptides of protein X5 of SARS-CoV Urbani: 0.3
  Binding of serum 62 to linear peptides of protein X5 of SARS-CoV Urbani: 0.8
  Binding of serum 62 to looped/cyclic peptides of protein X5 of SARS-CoV Urbani: 0.2
  Binding of serum London to linear peptides of protein X5 of SARS-CoV Urbani: 0.9
  Binding of serum London to looped/cyclic peptides of protein X5 of SARS-CoV Urbani: 0.1
  Binding of serum SARS-green to linear peptides of protein X5 of SARS-CoV Urbani: 0.8
  Binding of serum SARS-green to looped/cyclic peptides of protein X5 of SARS-CoV Urbani: 0.0
  Binding of serum SARS-yellow to linear peptides of protein X5 of SARS-CoV Urbani: 0.1
  Binding of serum SARS-yellow to looped/cyclic peptides of protein X5 of SARS-CoV Urbani: 0.1
[3]
  Binding of Control Serum Blood-Bank to Looped peptides: 0.4
  Binding of Control serum Blood-bank to linear peptides: 0.6
  Binding of Control serum LUMC to linear peptides: 0.4
  Binding of Control serum LUMC to looped peptides: 0.3

## QWIQFMMSRRRLLAC
[1]
  Binding of a rabbit serum to linear peptides: 1.0
  Binding of a rabbit serum to looped peptides: 2.0
[2]
  Binding of serum 1a to linear peptides of protein X2: 0.7
  Binding of serum 1a to looped/cyclic peptides of protein X2 of SARS-CoV Urbani: 0.5
  Binding of serum 1b to linear peptides of protein X2: 0.5
  Binding of serum 1b to looped/cyclic peptides of protein X2 of SARS-CoV Urbani: 0.4
  Binding of serum 2 to linear peptides of protein X2: 0.5
  Binding of serum 2 to looped/cyclic peptides of protein X2 of SARS-CoV Urbani: 0.3
  Binding of serum 6 to linear peptides of protein X2: 0.7
  Binding of serum 6 to looped/cyclic peptides of protein X2 of SARS-CoV Urbani: 0.3
  Binding of serum 37 to linear peptides of protein X2: 0.6
  Binding of serum 37 to looped/cyclic peptides of protein X2 of SARS-CoV Urbani: 0.5
  Binding of serum 62 to linear peptides of protein X2: 0.6
  Binding of serum 62 to looped/cyclic peptides of protein X2 of SARS-CoV Urbani: 0.5
  Binding of serum London to linear peptides of protein X2: 0.5
  Binding of serum London to looped/cyclic peptides of protein X2 of SARS-CoV Urbani: 0.2
  Binding of serum SARS-green to linear peptides of protein X2: 0.5
  Binding of serum SARS-green to looped/cyclic peptides of protein X2 of SARS-CoV Urbani: 0.4
  Binding of serum SARS-yellow to linear peptides of protein X2: 0.6
  Binding of serum SARS-yellow to looped/cyclic peptides of protein X2 of SARS-CoV Urbani: 0.4
[3]
  Binding of Control Serum Blood-Bank to Looped peptides: 0.3
  Binding of Control serum Blood-bank to linear peptides: 0.8
  Binding of Control serum LUMC to linear peptides: 0.5
  Binding of Control serum LUMC to looped peptides: 0.4

## QWNLVIGFLFLAWIM
[1]
  Rabbit serum linear peptides: 0.3
  Rabbit serum looped peptides: 0.3
[2]
  Binding of serum 1a to linear peptides of protein M of SARS-CoV Urbani: 0.7
  Binding of serum 1a to looped/cyclic peptides of protein M of SARS-CoV Urbani: 0.7
  Binding of serum 1b to linear peptides of protein M of SARS-CoV Urbani: 0.4
  Binding of serum 1b to looped/cyclic peptides of protein M of SARS-CoV Urbani: 0.6
  Binding of serum 2 to linear peptides of protein M of SARS-CoV Urbani: 0.6
  Binding of serum 2 to looped/cyclic peptides of protein M of SARS-CoV Urbani: 0.6
  Binding of serum 6 to linear peptides of protein M of SARS-CoV Urbani: 0.4
  Binding of serum 6 to looped/cyclic peptides of protein M of SARS-CoV Urbani: 0.6
  Binding of serum 37 to linear peptides of protein M of SARS-CoV Urbani: 0.7
  Binding of serum 37 to looped/cyclic peptides of protein M of SARS-CoV Urbani: 0.5
  Binding of serum 62 to linear peptides of protein M of SARS-CoV Urbani: 0.8
  Binding of serum 62 to looped/cyclic peptides of protein M of SARS-CoV Urbani: 0.7
  Binding of serum London to linear peptides of protein M of SARS-CoV Urbani: 0.3
  Binding of serum London to looped/cyclic peptides of protein M of SARS-CoV Urbani: 0.2
  Binding of serum SARS-green to linear peptides of protein M of SARS-CoV Urbani: 0.2
  Binding of serum SARS-green to looped/cyclic peptides of protein M of SARS-CoV Urbani: 0.3
  Binding of serum SARS-yellow to linear peptides of protein M of SARS-CoV Urbani: 0.1
  Binding of serum SARS-yellow to looped/cyclic peptides of protein M of SARS-CoV Urbani: 0.8
[3]
  Binding of Control Serum Blood-Bank to Looped peptides of the protein M of SARS-CoV Urbani: 0.6
  Binding of Control serum Blood-bank to linear peptides of the protein M of SARS-CoV Urbani: 0.7
  Binding of Control serum LUMC to linear peptides of the protein M of SARS-CoV Urbani: 0.3
  Binding of Control serum LUMC to looped peptides of the protein M of SARS-CoV Urbani: 0.6

## RFLYIIKLVFLWLLW
[1]
  Rabbit serum linear peptides: 0.2
  Rabbit serum looped peptides: 0.3
[2]
  Binding of serum 1a to linear peptides of protein M of SARS-CoV Urbani: 0.7
  Binding of serum 1b to linear peptides of protein M of SARS-CoV Urbani: 0.7
  Binding of serum 2 to linear peptides of protein M of SARS-CoV Urbani: 0.6
  Binding of serum 6 to linear peptides of protein M of SARS-CoV Urbani: 0.8
  Binding of serum 37 to linear peptides of protein M of SARS-CoV Urbani: 0.4
  Binding of serum 62 to linear peptides of protein M of SARS-CoV Urbani: 0.4
  Binding of serum London to linear peptides of protein M of SARS-CoV Urbani: 0.6
  Binding of serum SARS-green to linear peptides of protein M of SARS-CoV Urbani: 0.6
  Binding of serum SARS-yellow to linear peptides of protein M of SARS-CoV Urbani: 0.3
  Recognition of the peptide by sera of SARS-CoV infected individuals, and form (linear, looped/cyclic) in which it is recognized: recognized in looped/cyclic form
[3]
  Binding of Control Serum Blood-Bank to Looped peptides of the protein M of SARS-CoV Urbani: 0.7
  Binding of Control serum Blood-bank to linear peptides of the protein M of SARS-CoV Urbani: 0.7
  Binding of Control serum LUMC to linear peptides of the protein M of SARS-CoV Urbani: 0.8
  Binding of Control serum LUMC to looped peptides of the protein M of SARS-CoV Urbani: 0.8
